Reference: patent publication US9969716B2, “Indole derivatives as modulators of methyl modifying enzymes, compositions and uses thereof” (Constellation Pharmaceuticals, Inc., priority 2013, dated 2018)

Columns and labels:
[1] = system: H3K27me3 mark in HeLa cells; experiment: H3K27me3 Alpha Hela Assay (AlphaLISA); format: cell-based; conditions: Homo sapiens, 72 hrs, read-out: EZH2_Cell_H3K27me3_Alpha_HeLa (EC50_K27me3)
Description: Ten different doses of each test compound (in a series of 3-fold dilutions) were plated in duplicate 384-well tissue culture treated plates (Catalog #781080; Greiner Bio One; Monroe, N.C.). Hela cells grown in culture were trypsinized and counted using a Countess® cell counter (Catalog # C10281; Life Technologies, Grand Island, N.Y.). Cell were diluted to 67,000 cells per mL in 10% DMEM (Catalog #10569-010 Life Technologies, Grand Island, N.Y.) and 15 μL (1,000 cells) were plated into each well using the Biotek MicroFlo™ Select Dispenser (BioTek Instruments, Inc. Vermont, USA),) of the 384-well plate. Plates were incubated at 37° C./5% CO2 for 72 hrs. One of the duplicate plates was processed for HeLa assay and the other for viability.
To the plate processed for AlphaLISA was added 5 μL per well Cell-Histone Lysis buffer (1λ) (Catalog # AL009F1 Perkin Elmer; Waltham, Mass.) and the plate was incubated at RT for 30 minutes on a plate shaker with low speed (Model#4625-Q Thermo Scientific; Waltham, Mass.). Then, 10 μL per well Histone Extraction buffer (catalog # AL009F2; Perkin Elmer; Waltham, Mass.) was added and the plate further incubated at RT for 20 min on plate shaker with low speed. To each well was then added 10 μL per well of a 5× mix of anti-K27me3 acceptor beads plus Biotinylated anti-Histone H3 (C-ter) Antibody (diluted to 3 nM final) (Catalog #AL118 Perkin Elmer; Waltham, Mass.). Dilution of the acceptor beads and then anti-Histone H3 was with 1× Histone Detection buffer (Catalog # AL009F3 Perkin Elmer; Waltham, Mass.) which was produced diluted from the 10× stock provided. The plate was sealed with an aluminum plate sealer and incubated at 23° C. for 60 min. We then added 10 μL 5× solution of Streptavidin Donor beads (Catalog #6760002 Perkin Elmer; Waltham, Mass.) (20 μg/mL final in 1× Histone Detection Buffer), sealed the plate with Aluminum plate sealer and incubated at 23° C. for 30 min. The plates were then read using an EnVision-Alpha Reader (model #2104 Perkin Elmer; Waltham, Mass.).
Data from both assays was analyzed using Assay Assistant (Constellation Pharmaceuticals In-house product) and Activity Base (IDBS Ltd, Surrey, UK) template. Data files were imported to Assay Assistant and assay conditions were specified. A unique Analysis ID was created and the data files exported to Activity Base. An analysis template was created on Activity Base to measure dose-dependent inhibition of H3K27me3 mark and cell viability respectively. Readout of DMSO wells were used to normalize the data. Resulting curves were fitted using Activity base software Model 205 (IDBS Ltd, Surrey, UK). The data was checked for quality, validated and integrated in excel format using SARview (IDBS Ltd, Surrey, UK).

[2] = target: EZH2 (Homo sapiens, UniProt Q15910); experiment: EZH2 assay (rPRC2, 3H SAM methyl transfer to biotinylated oligonucleosomes, FlashPlate); format: biochemical
Description: EZH2 Assay: Assays were carried out by mixing rPRC2 together with biotinylated oligonucleosome substrates in the presence of the radio-labeled enzyme co-factor, S-adenosyl-L-methionine (^3H SAM) (Perkin Elmer) and monitoring the enzymatically mediated transfer of tritiated methyl groups from ^3H SAM to histone lysine residues. The amount of resulting tritiated methyl histone product was measured by first capturing the biotinylated oligonucleosomes in streptavidin (SAV) coated FlashPlates (Perkin Elmer), followed by a wash step to remove un-reacted ^3H SAM, and then counting on a TopCount NXT 384 well plate scintillation counter (Perkin Elmer). The final assay conditions for EZH2 were as follows: 50 mM Tris Buffer pH 8.5, 1 mM DTT, 69 μM Brij-35 detergent, 5.0 mM MgCl2, 0.1 mg/mL BSA, 0.2 μM ^3H SAM, 0.2 μM biotinylated oligonucleosomes, 3.6 μM H3K27me3 peptide and 2 nM EZH2.
A 12.5 μL volume of the HMT enzyme, H3K27me3 peptide and oligonucleosome substrate in assay buffer was added to each well of the assay plate using a Multidrop Combi (ThermoFisher). Compounds were pre-incubated with the enzyme for 20 min, followed by initiation of the methyltransferase reaction by addition of 12.5 μL of ^3H SAM in assay buffer (final volume=25 μL). The final concentrations of compounds ranged from a top default concentration of 80 μM down to 0.16 μM in ten 2-fold dilution steps. Reactions were carried out for 60 minutes and quenched with 20 μL per well of 1.96 mM SAH, 50 mM Tris pH 8.5, 200 mM EDTA. Stopped reactions were transferred to SAV coated Flashplates (Perkin Elmer), incubated for 120 min, washed with a plate washer, and then read on the TopCount NXT (1.0 min/well) to measure the amount of methyl histone product formed during the reaction.

EZH2, sequence (Q15910 whole entry): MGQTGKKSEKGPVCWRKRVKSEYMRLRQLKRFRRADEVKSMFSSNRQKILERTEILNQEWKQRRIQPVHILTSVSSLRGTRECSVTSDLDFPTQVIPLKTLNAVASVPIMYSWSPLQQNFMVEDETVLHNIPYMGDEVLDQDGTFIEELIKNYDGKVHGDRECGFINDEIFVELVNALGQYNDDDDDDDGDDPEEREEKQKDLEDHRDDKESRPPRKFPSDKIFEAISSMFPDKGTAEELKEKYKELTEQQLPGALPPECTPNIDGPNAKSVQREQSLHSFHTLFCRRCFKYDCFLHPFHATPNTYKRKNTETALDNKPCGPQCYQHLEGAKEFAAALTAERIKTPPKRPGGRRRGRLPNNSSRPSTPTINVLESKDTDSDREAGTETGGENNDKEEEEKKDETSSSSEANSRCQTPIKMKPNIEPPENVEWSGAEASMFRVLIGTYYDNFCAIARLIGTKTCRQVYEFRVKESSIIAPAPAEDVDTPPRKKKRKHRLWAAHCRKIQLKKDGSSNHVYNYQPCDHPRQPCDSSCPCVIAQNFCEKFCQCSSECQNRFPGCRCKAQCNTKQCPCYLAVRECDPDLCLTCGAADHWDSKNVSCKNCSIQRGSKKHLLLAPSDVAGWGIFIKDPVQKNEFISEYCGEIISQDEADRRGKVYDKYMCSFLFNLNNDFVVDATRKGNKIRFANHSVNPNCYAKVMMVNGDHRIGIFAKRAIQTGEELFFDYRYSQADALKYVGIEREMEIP
EZH2, sequence (O75530 whole entry partner): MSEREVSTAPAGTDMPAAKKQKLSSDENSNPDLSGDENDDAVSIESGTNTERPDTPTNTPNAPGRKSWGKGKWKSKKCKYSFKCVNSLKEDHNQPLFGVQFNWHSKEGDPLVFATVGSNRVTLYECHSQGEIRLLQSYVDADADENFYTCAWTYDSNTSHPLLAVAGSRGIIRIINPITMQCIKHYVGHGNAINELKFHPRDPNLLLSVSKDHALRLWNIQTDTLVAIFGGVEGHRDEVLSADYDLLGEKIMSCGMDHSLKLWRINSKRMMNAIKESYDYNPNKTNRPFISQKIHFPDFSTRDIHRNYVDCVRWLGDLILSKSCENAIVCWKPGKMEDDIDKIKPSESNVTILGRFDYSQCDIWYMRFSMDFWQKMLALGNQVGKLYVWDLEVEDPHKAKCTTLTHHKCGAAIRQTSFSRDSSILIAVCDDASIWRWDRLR
EZH2, sequence (Q15022 whole entry partner): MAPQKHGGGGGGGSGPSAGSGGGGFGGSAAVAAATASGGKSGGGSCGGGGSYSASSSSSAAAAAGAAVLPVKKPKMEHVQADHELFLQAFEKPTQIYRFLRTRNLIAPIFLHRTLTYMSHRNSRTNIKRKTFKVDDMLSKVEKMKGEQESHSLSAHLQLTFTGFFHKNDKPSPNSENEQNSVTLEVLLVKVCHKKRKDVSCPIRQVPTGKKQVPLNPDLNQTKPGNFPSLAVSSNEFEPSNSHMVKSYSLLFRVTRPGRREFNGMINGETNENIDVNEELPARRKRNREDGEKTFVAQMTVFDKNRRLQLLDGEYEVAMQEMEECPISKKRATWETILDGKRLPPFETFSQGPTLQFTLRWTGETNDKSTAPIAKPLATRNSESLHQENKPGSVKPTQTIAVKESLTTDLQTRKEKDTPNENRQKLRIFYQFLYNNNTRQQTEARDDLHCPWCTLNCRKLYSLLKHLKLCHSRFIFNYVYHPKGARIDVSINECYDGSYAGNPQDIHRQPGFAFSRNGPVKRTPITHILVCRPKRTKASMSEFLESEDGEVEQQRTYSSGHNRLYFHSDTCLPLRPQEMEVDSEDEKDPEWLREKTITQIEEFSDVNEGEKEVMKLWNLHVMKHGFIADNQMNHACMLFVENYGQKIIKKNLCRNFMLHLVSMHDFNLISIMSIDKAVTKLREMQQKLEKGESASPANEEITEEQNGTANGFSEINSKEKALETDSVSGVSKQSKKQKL

SMILES | EC50 [1] [nM] | IC50 [2] [nM]
CCC(C)(C)C(=O)N1CCC([C@@H](C)n2c(C)c(C(=O)NCc3c(OC)cc(C)[nH]c3=O)c3ccccc32)CC1 [Compound 233] | < 400 | < 100
COc1cc(C)[nH]c(=O)c1CNC(=O)c1c(C)n([C@H](C)C2CCN(C(=O)C3CCCC3)CC2)c2ccccc12 [Compound 235] | 400 to 2000 | < 100
COc1cc(C)[nH]c(=O)c1CNC(=O)c1c(C)n([C@H](C)C2CCN(C(=O)C(C)(C)OC)CC2)c2ccccc12 [Compound 236] | < 400 | < 100
COc1cc(C)[nH]c(=O)c1CNC(=O)c1c(C)n([C@H](C)C2CCN(C(=O)Cn3ccnc3C)CC2)c2ccccc12 [Compound 237] | > 2000 | < 100
COc1cc(C)[nH]c(=O)c1CNC(=O)c1c(C)n([C@H](C)C2CCN(Cc3cnn(C)c3)CC2)c2ccccc12 [Compound 238] | > 2000 | < 100
COc1cc(C)[nH]c(=O)c1CNC(=O)c1c(C)n([C@H](C)C2CCN(Cc3nccn3C)CC2)c2ccccc12 [Compound 239] | 400 to 2000 | < 100
COc1cc(C)[nH]c(=O)c1CNC(=O)c1c(C)n([C@H](C)C2CCN(Cc3cncnc3)CC2)c2ccccc12 [Compound 240] | 400 to 2000 | < 100
COc1cc(C)[nH]c(=O)c1CNC(=O)c1c(C)n([C@H](C)C2CCN(Cc3ncccn3)CC2)c2ccccc12 [Compound 241] | 400 to 2000 | < 100
COc1cc(C)[nH]c(=O)c1CNC(=O)c1c(C)n([C@H](C)C2CCN(C(=O)C3(F)CCN(C)CC3)CC2)c2ccccc12 [Compound 242] | 400 to 2000 | < 100
COc1cc(C)[nH]c(=O)c1CNC(=O)c1c(C)n([C@H](C)C2CCN(C(=O)C3CCN(C)CC3)CC2)c2ccccc12 [Compound 243] | > 2000 | < 100
COc1cc(C)[nH]c(=O)c1CNC(=O)c1c(C)n([C@H](C)C2CCN(Cc3cccnc3)CC2)c2ccccc12 [Compound 244] | 400 to 2000 | < 100
COc1cc(C)[nH]c(=O)c1CNC(=O)c1c(C)n([C@H](C)C2CCN(Cc3ccncc3)CC2)c2ccccc12 [Compound 245] | < 400 | < 100
COc1cc(C)[nH]c(=O)c1CNC(=O)c1c(C)n([C@H](C)C2CCN(Cc3ccnc(C)c3)CC2)c2ccccc12 [Compound 246] | < 400 | < 100
COc1cc(C)[nH]c(=O)c1CNC(=O)c1c(C)n([C@H](C)C2CCN(C(=O)Cc3cc(C)no3)CC2)c2ccccc12 [Compound 247] | 400 to 2000 | < 100
COc1cc(C)[nH]c(=O)c1CNC(=O)c1c(C)n([C@H](C)C2CCN(C(=O)N3CCC(F)(F)C3)CC2)c2ccccc12 [Compound 248] | 400 to 2000 | < 100
COc1cc(C)[nH]c(=O)c1CNC(=O)c1c(C)n([C@H](C)C2CCN(C(=O)N3CCC(F)(F)CC3)CC2)c2ccccc12 [Compound 249] | 400 to 2000 | < 100
COc1cc(C)[nH]c(=O)c1CNC(=O)c1c(C)n([C@H](C)C2CCN(Cc3ccc(C#N)cn3)CC2)c2ccccc12 [Compound 250] | < 400 | < 100
COc1cc(C)[nH]c(=O)c1CNC(=O)c1c(C)n([C@H](C)C2CCN(Cc3ccnc(C(F)(F)F)c3)CC2)c2ccccc12 [Compound 251] | < 400 | < 100
COc1cc(C)[nH]c(=O)c1CNC(=O)c1c(C)n([C@H](C)C2CCN(Cc3cc(C)nc(C)c3)CC2)c2ccccc12 [Compound 252] | < 400 | < 100

SMILES | EC50 [1] [nM] | IC50 [2] [nM]
COc1cc(C)[nH]c(=O)c1CNC(=O)c1c(C)n([C@H](C)C2CCN(C(C)(C)C(C)=O)CC2)c2ccccc12 [Compound 253] | < 400 | < 100
COc1cc(C)[nH]c(=O)c1CNC(=O)c1c(C)n([C@H](C)C2CCN(C3CC3)CC2)c2ccccc12 [Compound 254] | < 400 | < 100
COc1cc(C)[nH]c(=O)c1CNC(=O)c1c(C)n([C@H](C)C2CCN(Cc3ccn(C)n3)CC2)c2ccccc12 [Compound 255] | > 2000 | < 100
COc1cc(C)[nH]c(=O)c1CNC(=O)c1c(C)n([C@H](C)C2CCN([S+]([O-])C(C)(C)C)CC2)c2ccccc12 (some centres unmarked) [Compound 256] | < 400 | < 100
COc1cc(C)[nH]c(=O)c1CNC(=O)c1c(C)n([C@H](C)C2CCN(Cc3cncc(F)c3)CC2)c2ccccc12 [Compound 257] | < 400 | < 100
COc1cc(C)[nH]c(=O)c1CNC(=O)c1c(C)n([C@H](C)C2CCN(S(=O)(=O)c3cccnc3)CC2)c2ccccc12 [Compound 258] | 400 to 2000 | < 100
COc1cc(C)[nH]c(=O)c1CNC(=O)c1c(C)n([C@H](C)C2CCN(Cc3ccncn3)CC2)c2ccccc12 [Compound 259] | < 400 | < 100
COc1cc(C)[nH]c(=O)c1CNC(=O)c1c(C)n([C@H](C)C2CCN(Cc3ccncc3F)CC2)c2ccccc12 [Compound 260] | < 400 | < 100
COc1cc(C)[nH]c(=O)c1CNC(=O)c1c(C)n([C@H](C)C2CCN(Cc3cnccn3)CC2)c2ccccc12 [Compound 261] | < 400 | < 100
COC(C)(C)CN1CCC([C@@H](C)n2c(C)c(C(=O)NCc3c(Cl)cc(C)[nH]c3=O)c3ccccc32)CC1 [Compound 262] | < 400 | < 100
COc1cc(C)[nH]c(=O)c1CNC(=O)c1c(C)n([C@H](C)C2CCN(Cc3cccc(F)c3)CC2)c2ccccc12 [Compound 263] | < 400 | < 100
COc1cc(C)[nH]c(=O)c1CNC(=O)c1c(C)n([C@H](C)C2CCN(Cc3ccnc(C#N)c3)CC2)c2ccccc12 [Compound 264] | < 400 | < 100
COc1cc(C)[nH]c(=O)c1CNC(=O)c1c(C)n([C@H](C)C2CCN(C(=O)C3(F)CCC3)CC2)c2ccccc12 [Compound 265] | < 400 | < 100
COc1cc(C)[nH]c(=O)c1CNC(=O)c1c(C)n([C@H](C)C2CCN(Cc3cc(C)ncn3)CC2)c2ccccc12 [Compound 266] | < 400 | < 100
COc1cc(C)[nH]c(=O)c1CNC(=O)c1c(C)n([C@H](C)C2CCN(Cc3cccc(C)n3)CC2)c2ccccc12 [Compound 267] | < 400 | < 100
COc1cc(C)[nH]c(=O)c1CNC(=O)c1c(C)n([C@H](C)C2CCN(Cc3cnccc3C#N)CC2)c2ccccc12 [Compound 268] | < 400 | < 100
COc1cc(C)[nH]c(=O)c1CNC(=O)c1c(C)n([C@H](C)C2CCN(C(=O)C3CCOCC3)CC2)c2ccccc12 [Compound 269] | 400 to 2000 | < 100
COc1cc(C)[nH]c(=O)c1CNC(=O)c1c(C)n([C@H](C)C2CCN(C(=O)C3CCOC3)CC2)c2ccccc12 (some centres unmarked) [Compound 270] | > 2000 | < 100
